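Test compounds were applied to cells in 96-well plates for 48 hours at 5 doses. At the GI50, growth is halved. TGI: concentration producing complete growth inhibition.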

Common to all, as to assay: growth of human tumour cells (NCI), 48 h
Assay [1] concerns SK-MEL-28 melanoma.
Assay [2] concerns T-47D breast.
Assay [3] has as its system KM12 colon.
Assay [4] concerns NCI/ADR-RES ovarian.
For assay [5], the system named is HS 578T breast.
In assay [6] the test system is MCF7 breast.

As for `O=C(Nc1ccc(N2CCNCC2)cc1)c1[nH]ncc1Nc1ncnc2sc3c(c12)CCC3`, the GI50 in assay [1] was 1 µM; in assay [2], 0.852 µM; in assay [3], 0.219 µM; in assay [4], 1.48 µM; in assay [5] it was 0.0994 µM; in assay [6], 0.166 µM. Besides, the TGI in assay [1] turned out to be 2.29 µM; in assay [2], 3.53 µM; in assay [3], 1.33 µM; in assay [4], 3.7 µM; in assay [5], 2.08 µM; in assay [6], 1.3 µM.
In the case of `COc1cc2c(cc1OC)C(=O)/C(=C/c1cccc(OCC(=O)c3ccccc3)c1)C2`, the GI50 in assay [1] was 58.4 µM; in assay [2] it was 4.34 µM; in assay [3], 7.79 µM; in assay [4], 6.93 µM; in assay [5], 13.1 µM; in assay [6], 5.83 µM. Moreover, the TGI in assay [1] was > 100 µM; in assay [2] it was 68.8 µM; in assay [3], > 100 µM; in assay [4], > 100 µM; in assay [5] it was 75.2 µM; in assay [6], > 100 µM.
Turning to `O=C(Oc1ccc(Cl)cc1Cl)c1ccccc1Nc1ccnc(C(F)(F)F)c1`, the GI50 is 3.69 µM in assay [3], 3.66 µM in assay [4], 24.9 µM in assay [5] and 3.61 µM in assay [6]. For the same compound, the TGI in assay [3] came to 21.1 µM; in assay [4] it was 11.7 µM; in assay [5] it was 73.9 µM; in assay [6] it was 17.2 µM.
For the compound `CC(=O)Nc1ccc2c(c1)c(C1=C(c3cn(C)c4ccccc34)C(=O)NC1=O)cn2C`, the GI50 is 3.62 µM in assay [1]; 1.66 µM in assay [2]; 1.16 µM in assay [3]; 1.58 µM in assay [4]; 0.596 µM in assay [5]; 0.852 µM in assay [6]. Further, the TGI was > 25 µM in assay [1]; > 25 µM in assay [2]; > 25 µM in assay [3]; > 25 µM in assay [4]; > 6.79 µM in assay [5]; > 15.7 µM in assay [6].
For `O=C(CCCCCCSc1nc(-c2ccccc2)cc(-c2ccc(Cl)cc2)n1)NO`, the GI50 is 2.94 µM in assay [1]; 1.62 µM in assay [2]; 2.97 µM in assay [3]; 0.596 µM in assay [4]; 2.76 µM in assay [5]; 1.95 µM in assay [6]. The TGI in assay [1] is 12.1 µM; in assay [2] it was 4.98 µM; in assay [3] it was 13.5 µM; in assay [4], 8.84 µM; in assay [5] it was 20.1 µM; in assay [6], 13.3 µM.
In the case of `COc1ccc2c(c1)[nH]c(=O)c1c3cc(C)c(C)cc3cn21`, the GI50 in assay [1] was < 0.01 µM; in assay [2], 1.17 µM; in assay [3], 0.0292 µM; in assay [5], < 0.01 µM; in assay [6] it was 0.0927 µM. Besides, the TGI in assay [1] stood at 1.91 µM; in assay [2], 2.9 µM; in assay [3], 0.109 µM; in assay [6] it was 1.16 µM.
For the compound `COc1cc(-c2nn(-c3ccc(NC(=O)c4ccc(Cl)c(Cl)c4)cc3)cc2-c2ccncc2)ccc1Cl`, the GI50 in assay [1] was 40.3 µM; in assay [2], 3.76 µM; in assay [3], 5.97 µM; in assay [4] it was 7.16 µM; in assay [5] it was 4.13 µM; in assay [6], 5.53 µM. The TGI in assay [1], in assay [2], in assay [3], in assay [4], in assay [5] and in assay [6] was > 100 µM each time.
For `Cc1ncc(CN=Cc2ccc(Cl)cc2)c(N)n1`, the TGI in assay [1], in assay [2], in assay [3], in assay [4], in assay [5] and in assay [6] was > 100 µM in each case.
`COC(=O)N[C@H]1CCc2c(Br)c(OC)c(OC)c(OC)c2-c2ccc(SC)c(=O)cc21`: the GI50 in assay [1] was 6.99 µM; in assay [3], < 0.01 µM; in assay [4], 0.0179 µM; in assay [5], < 0.01 µM; in assay [6] it was < 0.01 µM. In addition, the TGI in assay [1] is 25.1 µM; in assay [3], 10.6 µM; in assay [5], > 52.1 µM; in assay [6], 12.4 µM.
For `CCOC(=O)c1c2c(n3ccc(NC(=O)CCN4CCCC4)cc13)C(=O)c1ncccc1C2=O`, the GI50 in assay [1] was 16.1 µM; in assay [2], 1.7 µM; in assay [3] it was 1.52 µM; in assay [4], 1.27 µM. In addition, the TGI in assay [1] came to 35.9 µM; in assay [2], 4.24 µM; in assay [3] it was 3.32 µM; in assay [4] it was 4.86 µM.
For `O=C(CN1CCN(c2ncccn2)CC1)Nc1ccc(Cl)cc1C(=O)c1ccccc1Cl`, the GI50 in assay [1] was > 100 µM; in assay [2], 30.8 µM; in assay [3], 69 µM; in assay [4], > 100 µM; in assay [5], 83.6 µM; in assay [6], 83.3 µM. Further, the TGI in assay [1], in assay [2], in assay [3], in assay [4], in assay [5] and in assay [6] was > 100 µM in each case.
With `CCC[CH2][Sn-]([CH2]CCC)([CH2]CCC)[O]c1cc(Cl)c(Cl)cc1Cl`, the GI50 in assay [1] was 0.167 µM; in assay [2], 0.137 µM; in assay [3], 0.195 µM; in assay [4], 0.163 µM; in assay [5] it was 0.00467 µM; in assay [6] it was 0.237 µM. The TGI worked out at 0.365 µM in assay [1]; 0.35 µM in assay [2]; 0.402 µM in assay [3]; 0.385 µM in assay [4]; 0.212 µM in assay [5]; 0.887 µM in assay [6].
As for `COc1cc(O)c([C@@H]2C[C@H](CCc3ccc(O)cc3)O[C@H](c3ccc(O)cc3)C2)c(O)c1C(=O)/C=C/c1ccc(O)cc1`, the GI50 is 3.28 µM in assay [1]; 2.93 µM in assay [2]; 9.83 µM in assay [3]; 5.53 µM in assay [4]; 2.53 µM in assay [5]; 1.96 µM in assay [6]. Moreover, the TGI is 12 µM in assay [1]; 9.77 µM in assay [2]; > 35 µM in assay [3]; 25.5 µM in assay [4]; 15.4 µM in assay [5]; 4.61 µM in assay [6].
